For assay [1], the system named is Corticosteroid 11-beta-dehydrogenase isozyme 2 (Homo sapiens). Nature of the assay: Inhibition of 11beta-HSD2 in human SW620 cells at 10 uM. To be noted: SW-620.
Assay [2] in a line: Inhibition of cynomolgus monkey 11beta-HSD1 mediated conversion of prednisone to prednisolone. Further details: species or system Macaca fascicularis.

In general, inhibition refers to the drop in the measured response relative to a control, in per cent. As a reminder, the Ki is the equilibrium dissociation constant of an inhibitor or competing ligand from its target.

Molecules are shown by their SMILES.

`O=C(Nc1cccc(C(=O)N2CCC[C@H]3CCCC[C@@H]32)c1)c1ccccc1` registered an inhibition in assay [1] of 12%.

With `N#Cc1ccc(-c2ccc(S(=O)(=O)Nc3cccc(N)n3)cc2)cc1`, in assay [2], the Ki is 2.3 nM.

For the origin of these results see ChEMBL document CHEMBL1155949, “Blockade of glucocorticoid excess at the tissue level: inhibitors of 11beta-hydroxysteroid dehydrogenase type 1 as a therapy for type 2 diabetes” (J Med Chem, 2008).
